# Measured values: patent EP0598753B1, “MANGANESE COMPLEXES OF NITROGEN-CONTAINING MACROCYCLIC LIGANDS EFFECTIVE AS CATALYSTS FOR DISMUTATING SUPEROXIDE” (MONSANTO COMPANY, priority 1991, dated 1993)
# Entries after “also recorded” stand apart in the source; their conditions may differ.
# Columns and labels:
# [1] = Stopped-flow kinetic analysis of catalytic dismutation of superoxide; assay type: biochemical; details: for kCAT: catalytic rate constant for dismutation of superoxide, pH 8.1 and 21°C; for SOD activity (catalysis of the dismutation of superoxide), in words: stopped-flow kinetic analysis
# Description: Stopped-flow kinetic analysis is an accurate and direct method for quantitatively monitoring the decay rates of superoxide in water.
# For the attainment of consistent and accurate measurements all reagents were biologically clean and metal-free. To achieve this, all buffers (Calbiochem) were biological grade, metal-free buffers and were handled with utensils which had been washed first with 0.1 N HCl, followed by purified water, followed by a rinse in a 10^-4 M EDTA bath at pH 8, followed by a rinse with purified water and dried at 65°C for several hours. Dry DMSO solutions of potassium superoxide (Aldrich) were prepared under a dry, inert atmosphere of argon in a Vacuum Atmospheres dry glovebox using dried glassware. The DMSO solutions were prepared immediately before every stopped-flow experiment. A mortar and pestle were used to grind the yellow solid potassium superoxide (~100 mg). The powder was then ground with a few drops of DMSO and the slurry transferred to a flask containing an additional 25 ml of DMSO. The resultant slurry was stirred for 1/2 h and then filtered. […] These solutions were transferred to a glovebag under nitrogen in sealed vials prior to loading the syringe under nitrogen. It should be noted that the DMSO/superoxide solutions are extremely sensitive to water, heat, air, and extraneous metals. A fresh, pure solution has a very slight yellowish tint.
# Water for buffer solutions was delivered from an in-house deionized water system to a Barnstead Nanopure Ultrapure Series 550 water system and then double distilled, first from alkaline potassium permanganate and then from a dilute EDTA solution. For example, a solution containing 1.0 g of potassium permanganate, 2 liters of water and additional sodium hydroxide necessary to bring the pH to 9.0 were added to a […] fitted with a solvent distillation head. This distillation will oxidize any trace of organic compounds in the water. The final distillation was carried out under nitrogen in a 2.5-liter flask containing 1500 ml of water from the first still and 1.0 x 10^-6M EDTA. This step will remove remaining trace metals from the ultrapure water. To prevent EDTA mist from volatilizing over the reflux arm to the still head, the 40-cm vertical arm was packed with glass beads and wrapped with insulation. This system produces deoxygenated water that can be measured to have a conductivity of less than 2.0 nanomhos/cm^2.
# The stopped-flow spectrometer system was designed and manufactured by Kinetic Instruments Inc. (Ann Arbor, MI) and was interfaced to a MAC IICX personal computer. The software for the stopped-flow analysis was provided by Kinetics Instrument Inc. and was written in QuickBasic with MacAdios drivers. Typical injector volumes (0.10 ml of buffer and 0.006 ml of DMSO) were calibrated so that a large excess of water over the DMSO solution were mixed together. […] Aqueous solutions to be mixed with the DMSO solution of superoxide were prepared using 80 mM concentrations of the Hepes buffer, pH 8.1 (free acid + Na form). One of the reservoir syringes was filled with 5 ml of the DMSO solution while the other was filled with 5 ml of the aqueous buffer solution. The entire injection block, mixer, and spectrometer cell were immersed in a thermostatted circulating water bath with a temperature of 21.0 ± 0.5°C.
# Prior to initiating data collection for a superoxide decay, a baseline average was obtained by injecting several shots of the buffer and DMSO solutions into the mixing chamber. These shots were averaged and stored as the baseline.
# [2] = system: human aortic endothelial cells (HAE cells)
# Description: Human peripheral blood neutrophils were isolated from fresh venous blood of healthy volunteers. EDTA anticoagulated blood was separated using a single step density centrifugation (Polymorphprep; Nycomed Pharma, Oslo, Norway) followed by several washes in Hank's balanced salt solution supplemented with 0.5% BSA (Bovine Serum Albumin) (HBSSB) and the hypertonic lysis of erythrocytes. Neutrophils were counted via Coulter electronic particle counter and resuspended in HBSSB supplemented with 25% Endothelial Basal Medium (EBM), (Clonetics Corporation, San Diego, CA) at a concentration of 5 x 10^6 polymorphonuclear leukocytes (PMN)/ml.
# The cytotoxic effects of stimulated neutrophils on endothelial cells were determined using a ^51Cr-release assay as previously described (Moldow, C.F., and Jacob, H.S. (1984) Methods Enzymol. 105, 378-385). Confluent monolayers of human aortic endothelial cells (HAE cells; Clonetics) grown in 96-well culture plates were prelabeled with 1 µCi/well ^51Cr (Na2 ^51Cr2O4, New England Nuclear, Boston, MA). The cells were incubated for 18 h at 37°C, then cytokine-activated with 10 Units/well human recombinant tumor necrosis factor-a (hrTNF-α; Monsanto Company, St. Louis, MO) for 4 h at 37°C. The cells were washed twice to remove unincorporated radioactivity with Hank's balanced salt solution supplemented with 0.5% BSA. To assess inhibition of PMN-mediated cytotoxicity, manganese(II) complexes at various doses (0-300 µM) were added to five replicate wells/dose of HAE cells immediately prior to the addition of PMN. Suspensions of PMN in HBSSB supplemented with 25% Endothelial Basal Medium were added to the wells at a neutrophil to endothelial cell ratio of 50:1. The PMN were allowed to adhere for 15 minutes at 37°C, primed with 125 Units/well hrTNF-α (Berkow, R.L., Wang, D., Larrick, J.W., Dodson, R.W., and Howard, T.H. (1987) J. Immunol. 139, 3783-3791; Varani, J.; Bendelow, M. J. Sealey, D. E.; Kunkel, S. L.; Gannon, D. E.; Ryan, U.S.; and Ward, P.A. (1987) Lab. Invest., 59, 292-295) for 10 minutes, and stimulated with human recombinant complement component C5a (Sigma Chemical, St. Louis, MO). […] After an additional incubation of 4 hours at 37°C, 200 µl of the 250 µl reaction volume (soluble fraction) was removed to a tube for counting. The cells were washed twice with 200 µl HBSSB (nonadherent fraction) and the washes pooled with the soluble fraction. The adherent fraction was collected by lysing the HAE cells with 200 µl 1N NaOH for 30 minutes and removing to separate tubes. Both fractions were analyzed by gamma scintillation spectrometry. The percentage cytotoxicity was calculated by the following formula: % Cytotoxicity =(cpm (soluble + nonadherent fractions))/(cpm (soluble + nonadherent + adherent fractions))x 100 [formula] Specific cytotoxicity reflects the difference between ^51Cr-release induced by stimulated PMN and unstimulated PMN. The IC50 values for the manganese(II) complexes for protection against neutrophil-mediated cytotoxicity were determined from a computer-driven logistic regression equation from a plot of % specific cytotoxicity versus the concentration of the manganese(II) complex.
# [3] = system: colonic myeloperoxidase activity; experiment: Mouse acetic acid-induced colitis model (colonic myeloperoxidase); assay type: in vivo; details: 30 mg/kg dose, intracolonic, 30 minutes before acetic acid, tissue after 24 hours
# Description: Mouse colitis model. […] Mice were lightly anesthetized. A solution of 3% (v/v) aqueous acetic acid was instilled intracolonically via a flexible polyethylene tube. After 24 hours, the animals were killed and colonic tissue samples were obtained. Tissue samples were assessed biochemically for the neutrophil marker enzyme, myeloperoxidase (MPO). The colonic tissue samples were minced, homogenized in detergent, and sonicated. After centrifugation, enzyme activities were assayed spectrophotometrically by determining the decomposition of peroxide using o-dianisidine as the hydrogen donor. Data was obtained as the absorbance (460 nm) at 20 minutes. Test agents were given intracolonically at a dose of 30 mg/kg body weight 30 minutes before acetic acid instillation as a sonicated suspension in 0.5% aqueous methyl cellulose. Vehicle was given to appropriate acetic acid control animals. Normal tissue was obtained from control animals which received only vehicle. Colonic myeloperoxidase activities were determined as units/g wet weight of tissue. Reduction of colonic myeloperoxidase activity by test agents in acetic acid-treated mice is expressed as % inhibition (Table 2). Colonic myeloperoxidase activity correlated with the degree of tissue inflammation as assessed by visual and histological analysis.
Compound,kCAT ([1]; given as ND),"SOD activity (catalysis of the dismutation of superoxide), in words [1]",also measured
"[Manganese(II)dichloro(2,3-Benzo-1,4,7,10,13-pentaazacyclopentadecane)] [Example 37]",,,kCAT [1]: 4.6e+06 M⁻¹ s⁻¹
"C[C@@H]1CNCCNCCNCCNCCN1.[Cl-].[Cl-].[Mn+2] [Example 4, [Manganese(II)dichloro((R)-2-Methyl-1,4,7,10,13-pentaazacyclopentadecane)]]",,,"protection against human neutrophil-mediated cytotoxicity, in words [2]: protective against human neutrophil-mediated cytotoxicity"
"[Manganese(II)(2,7,12-Trimethyl-3,7,11,17-tetraazabicyclo[11.3.1]heptadeca-1(17),2, 11,13,15-pentaene)] Chloride [Example 24]",ND (Manganese(II) complex has no detectable superoxide dismutase activity. (kcat<10^6M^-1sec^-1)),,
"[Manganese(II)[1,4,7,10,13,16,19-Heptaazaacycloheneicosane)]Chloride [Example 14]",ND (Manganese(II) complex has no detectable superoxide dismutase activity. (kcat<10^6M^-1sec^-1)),are not catalysts for the dismutation of superoxide,
"[Manganese(II)(1,4,7,10,14-Pentaazacycloheptadecane)] Chloride [Example 12]",ND (Manganese(II) complex has no detectable superoxide dismutase activity. (kcat<10^6M^-1sec^-1)),ineffective at catalyzing the dismutation of superoxide,
"{Manganese(II)dichloro[2-(1-Naphthyl)-1,4,7,10,13-pentaazacyclopentadecane]} [Example 32]",,,kCAT [1]: 6.98e+06 M⁻¹ s⁻¹
"[Manganese(II)[1,4,7,10,13,16-hexaazacyclooctadecane)] Chloride [Example 13]",ND (Manganese(II) complex has no detectable superoxide dismutase activity. (kcat<10^6M^-1sec^-1)),are not catalysts for the dismutation of superoxide,
"[Manganese(II)1,4,8,12-tetramethyl-1,4,8,12-tetraazacyclopentadecane)] Chloride [Example 18]",ND (Manganese(II) complex has no detectable superoxide dismutase activity. (kcat<10^6M^-1sec^-1)),do not have SOD activity,
"[Manganese(II)1,5,9,13-Tetraazacyclohexadecane)] Chloride [Example 10]",ND (Manganese(II) complex has no detectable superoxide dismutase activity. (kcat<10^6M^-1sec^-1)),are not catalysts for the dismutation of superoxide,
"[Manganese(II)dichloro(3,6,9,12,18-Pentaazabicyclo(12.3.1)octadecane)] [Example 38]",,,kCAT [1]: 5.28e+06 M⁻¹ s⁻¹
"[Manganese(II)dichloro(trans-2,3-Cyclohexano-1,4,7,10,13-pentaazacyclopentadecane)] [Example 35]",,,kCAT [1]: 3.44e+07 M⁻¹ s⁻¹
"[Manganese(II)(1,4,8,11-Tetramethyl-1,4,8,11-tetraazacyclotetradecane)]Chloride [Example 25]",ND (Manganese(II) complex has no detectable superoxide dismutase activity. (kcat<10^6M^-1sec^-1)),are not catalysts for the dismutation of superoxide,
"[Manganese(II)(1-Methyl-1,4,7,11,14-pentaazacyclohexadecane)] Chloride [Example 16]",ND (Manganese(II) complex has no detectable superoxide dismutase activity. (kcat<10^6M^-1sec^-1)),ineffective at catalyzing the dismutation of superoxide,
"{Manganese(II)dichloro[(2S,8R)-Dimethyl-1,4,7,10,13-penta-azacyclopentadecane]} [Example 34]",,,kCAT [1]: 7.08e+06 M⁻¹ s⁻¹
"[Manganese(II)(5,7,7,12,14,14-Hexamethyl-1,4,8,11-tetraazacyclotetradeca-4,11-diene)] Chloride [Example 22]",ND (Manganese(II) complex has no detectable superoxide dismutase activity. (kcat<10^6M^-1sec^-1)),,
MnCl2,ND (Manganese(II) complex has no detectable superoxide dismutase activity. (kcat<10^6M^-1sec^-1)),failed to perturb the second order spontaneous decay of superoxide; also recorded: has no SOD activity,
"[Manganese(II)1,4,7,10,13-Pentamethyl-1,4,7,10,13-pentaazacyclopentadecane)] Chloride [Example 19]",ND (Manganese(II) complex has no detectable superoxide dismutase activity. (kcat<10^6M^-1sec^-1)),ineffective at dismutating superoxide,
"[Manganese(II)nitrate(1,4,7,10,13-pentaazacyclopentadecane)] Nitrate [Example 9]",,,kCAT [1]: 2.3e+07 M⁻¹ s⁻¹
"[Manganese(II) (1,4,8,11-Tetraazacyclotetradecane)] Chloride [Example 20]",ND (Manganese(II) complex has no detectable superoxide dismutase activity. (kcat<10^6M^-1sec^-1)),are not catalysts for the dismutation of superoxide,
"[Manganese(II)(1-Methyl-1,4,7,10,13-pentaazacyclopentadecane)]Chloride [Example 15]",ND (Manganese(II) complex has no detectable superoxide dismutase activity. (kcat<10^6M^-1sec^-1)),ineffective at dismutating superoxide,
"[Manganese(II)(1,4,8,12-Tetraazacyclopentadecane)] Chloride [Example 21]",ND (Manganese(II) complex has no detectable superoxide dismutase activity. (kcat<10^6M^-1sec^-1)),do not have SOD activity,
"[Manganese(II)[1-oxa-4,7,10,13-Tetrazacyclopentadecane)] Chloride [Example 17]",ND (Manganese(II) complex has no detectable superoxide dismutase activity. (kcat<10^6M^-1sec^-1)),do not have SOD activity,
"[Cl-].[Cl-].[Mn+2].c1ccc(CC2CNCCNCCNCCNCCN2)cc1 (centres unmarked) [Example 6, [Manganese(II)dichloro(2-Phenylmethyl-1,4,7,10,13-pentaazacyclopentadecane)]]",,,% Inhibition of Colonic Myeloperoxidase Activity [3]: 48%
"Manganese(II)(2,12-Dimethyl-3,7,11,17-tetraazabicyclo[11.3.1]heptadeca-1(17),2,11,13,15 -pentaenel] Chloride [Example 23]",ND (Manganese(II) complex has no detectable superoxide dismutase activity. (kcat<10^6M^-1sec^-1)),,
"[Manganese(III)(1,4,7,11,14-Pentaazacycloheptadecane)] Chloride [Example 11]",ND (Manganese(II) complex has no detectable superoxide dismutase activity. (kcat<10^6M^-1sec^-1)),ineffective at catalyzing the dismutation of superoxide,
"{Manganese(II)dichloro[(2S, 5R)-Dimethyl-1,4,7,10,13-pentaazacyclopentadecane]} [Example 33]",,,kCAT [1]: 2.9e+07 M⁻¹ s⁻¹
"[Manganese(II)(2,13-Dimethyl-3,6,9,12,18-pentaazabicyclo[12.3.1]octadeca-1(18)2,12,14,16 -pentaene)]Chloride [Example 26]",ND (Manganese(II) complex has no detectable superoxide dismutase activity. (kcat<10^6M^-1sec^-1)),,
